Measurements as given in patent US5234947A, “Potassium channel activating compounds and methods of use thereof” (New York University, priority 1991, dated 1993).
“Also recorded” adds a separate entry of the source.

Experiments:
[1] = target: T1, large 200-220 pS channel (large Ca++-dependent K+ channel) (Rattus norvegicus, UniProt Q62976); assay: lipid bilayer technique, rat brain membranes fused with a bilayer on a patch-clamp pipette; type: biochemical
T1 construct: single-channel recording
Method: Isolated avena pyrone was studied for its action against ionic channels in cell membranes using the lipid bilayer technique. Membranes from rat brain were fused with a lipid bilayer formed across the opening of a patch-clamp pipette. Electrical activity was monitored using an Axon Instruments Axopatch amplifier using 100 mM symmetrical KCl solutions. In the presence of elevated levels of calcium, at least three types of potassium channel can be determined: a small 25-50 pS channel, a 90-120 pS channel, and a large 200-220 pS channel. In the absence of calcium in the bathing solutions, openings of the large 200 pS channel are rarely seen.
FIGS. 1 and 2 show the exposure of the channels to potassium in the presence of avena pyrone. In the two tracings in FIG. 1, the membrane potential was held at -25 mV. Under these conditions, the mid-sized K^+ channel is very active but the large channel is rarely open during the approximately 1.5 seconds shown. […] The effect is most pronounced under low calcium conditions.

craving for a cigarette = type: in vivo; settings: cigarette smoking
Text: The interference with the effects of withdrawal symptoms from addictive substances of the subject compounds is also consistent with potassium channel activation. […] As one gets a craving for a cigarette, there is a perception of muscular tension. The effects of potassium channel activators are to lower the blood pressure, relax the muscles and make breathing easier, all of which counteracts the feeling of craving one experiences upon withdrawal from an addictive substance.

potassium channel = potassium channel activation (method not described); type: biochemical

T1 sequence (Q62976 whole entry, the tested form may be a part): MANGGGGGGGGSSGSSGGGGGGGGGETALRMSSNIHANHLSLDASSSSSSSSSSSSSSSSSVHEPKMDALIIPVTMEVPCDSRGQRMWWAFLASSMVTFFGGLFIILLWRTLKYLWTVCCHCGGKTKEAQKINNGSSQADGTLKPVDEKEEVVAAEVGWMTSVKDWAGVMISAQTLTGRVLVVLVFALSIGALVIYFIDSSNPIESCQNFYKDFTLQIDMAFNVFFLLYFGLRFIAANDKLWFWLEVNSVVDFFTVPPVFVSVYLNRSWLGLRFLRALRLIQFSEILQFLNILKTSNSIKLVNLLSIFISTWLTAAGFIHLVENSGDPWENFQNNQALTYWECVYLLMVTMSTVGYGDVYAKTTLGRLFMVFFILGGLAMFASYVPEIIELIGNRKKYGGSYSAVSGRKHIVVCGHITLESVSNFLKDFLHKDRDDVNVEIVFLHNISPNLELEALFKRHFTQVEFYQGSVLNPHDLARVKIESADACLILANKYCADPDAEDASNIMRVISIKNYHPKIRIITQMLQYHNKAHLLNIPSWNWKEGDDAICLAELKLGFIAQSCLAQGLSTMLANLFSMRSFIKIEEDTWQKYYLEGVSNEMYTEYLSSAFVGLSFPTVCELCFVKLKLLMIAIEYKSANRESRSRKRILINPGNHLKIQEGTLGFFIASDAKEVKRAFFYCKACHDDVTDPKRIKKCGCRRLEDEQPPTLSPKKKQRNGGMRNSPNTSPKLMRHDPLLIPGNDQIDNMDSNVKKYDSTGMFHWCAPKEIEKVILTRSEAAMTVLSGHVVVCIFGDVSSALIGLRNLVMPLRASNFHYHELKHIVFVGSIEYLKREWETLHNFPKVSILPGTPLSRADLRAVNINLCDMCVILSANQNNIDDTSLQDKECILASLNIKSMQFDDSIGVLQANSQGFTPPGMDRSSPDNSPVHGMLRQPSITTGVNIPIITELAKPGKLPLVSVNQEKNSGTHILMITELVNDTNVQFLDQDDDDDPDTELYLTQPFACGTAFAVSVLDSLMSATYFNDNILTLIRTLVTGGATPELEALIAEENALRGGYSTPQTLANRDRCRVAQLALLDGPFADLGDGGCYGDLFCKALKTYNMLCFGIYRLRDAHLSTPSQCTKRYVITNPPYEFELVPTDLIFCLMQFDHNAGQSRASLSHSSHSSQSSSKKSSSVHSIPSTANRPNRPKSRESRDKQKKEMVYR

| SMILES | activation of the large K+ channel ([1]; absence of calcium / low calcium, 100 mM symmetrical KCl, membrane potential -25 mV) | open times of the large channel ([1]; avena pyrone added to the bath, -25 mV) | open probability of the large channel ([1]; avena pyrone added to the bathing solution) | activation of the large channel ([1]; conditions of greater calcium concentration) | craving for a cigarette (craving for a cigarette) | potassium channel activation (potassium channel) |
| --- | --- | --- | --- | --- | --- | --- |
| CC1CCCC(=O)O1 (stereo not drawn) [avena pyrone, 2H-6-methyltetrahydropyran-2-one] | activation of the large K^+ channel is seen; also recorded: the large channel was activated | very long open times; also recorded: increased from a few milliseconds to times approaching seconds | increased open probability; also recorded: substantially increasing the open probability | still capable of activation of the channel but to a lesser degree | reduce the craving for a cigarette |  |
| COC1=CC(=O)O[C@@H](/C=C/c2ccccc2)C1 [kawain] |  |  |  |  |  | potassium channel activating substance |
